Results published in PubChem BioAssay (NCI).
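Interpolation was linear, between the two tested concentrations surrounding the appropriate level; five concentrations were tested over 48 hours in 96-well plates. GI50 is the concentration that inhibits growth by half. At the TGI there is no net growth.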

Assays:
Test in all cases: DTP human tumour cell line panel, 48 h
[1] = test system: CCRF-CEM leukemia
[2] = test system: COLO 205 colon
[3] = test system: HCT-116 colon
[4] = test system: MOLT-4 leukemia
[5] = test system: NCI-H460 lung
[6] = test system: NCI-H522 lung
[7] = test system: RPMI-8226 leukemia
[8] = test system: UO-31 renal
[9] = test system: NCI/ADR-RES ovarian
[10] = test system: DU-145 prostate

Compound	TGI [1] [µM]	TGI [2] [µM]	TGI [3] [µM]	TGI [4] [µM]	TGI [5] [µM]	TGI [6] [µM]	TGI [7] [µM]	TGI [8] [µM]	GI50 [1] [µM]	GI50 [2] [µM]	GI50 [3] [µM]	GI50 [4] [µM]	GI50 [5] [µM]	GI50 [6] [µM]	GI50 [7] [µM]	GI50 [8] [µM]	GI50 [9] [µM]	TGI [9] [µM]	GI50 [10] [µM]	TGI [10] [µM]
CC(=O)CC(=O)N(CCN(C(=O)CC(C)=O)c1ccccc1)c1ccccc1	> 100	> 100	> 100	> 100	> 100	> 100	> 100	> 100												
CN1CCC23c4c5ccc(O)c4OC2C(=NN=C2CCC4(O)C6Cc7ccc(O)c8c7C4(CCN6C)C2O8)CCC3(O)C1C5 (stereo not given)	> 100	> 100		> 100	> 100	> 100	> 100	> 100												
CC1=CC(=O)C(C)(C2=NC(C)(C)CO2)c2ccccc21 (stereo not given)	> 100	> 100	> 100	> 100	> 100	> 100	> 100	> 100												
O=c1c(O)c(-c2ccc(O)c(O)c2)oc2cc(O)ccc12	> 71.1	> 100	26.2	> 72.5	29.2	45.3	> 79.9	23.4												
CCOC(=O)C1Cc2c(ccc(OC)c2OC)C(=O)C1N (stereo not given)	> 100	> 100	> 100	> 100	> 100	> 100	> 100	> 100												
CCC[CH2][Sn]1([CH2]CCC)[O]C(c2ccccn2)S(=O)(=O)[O]1 (stereo not given)	4.19	4.54	22.9	7.51	30.4	2.47	6.46	26.6	1.54	2.1	11	2.84	16.8	1.18	2.23	13.6				
O=C(O)/C(Cl)=C(\Cl)Nc1cccc(C(F)(F)F)c1	> 100	> 100			> 100			> 100												
CC1(C)CCC(=O)c2c(O)ccc(O)c21		> 100	> 100	> 100		> 100	> 100	> 100												
CCCCCCCCCOC(=S)NC	47.7	49.2		46.5	36.3	31.2	48.4	23.2												
CC(=O)[CH-]C(=O)c1ccccc1.CC(=O)[CH-]C(=O)c1ccccc1.O=C([O-])C[O-].O=C([O-])C[O-].[Ti+4]			> 100	> 100	> 100	70.5	> 100	> 100			21.8	27.7	28.4	17.5	49.9	71.4				
C[C@H]1CCC/C=C/[C@@H]2C[C@H](O)C[C@H]2[C@H](O)[C@H](S(=O)c2ccc(O)cc2)CC(=O)O1 (stereo not given in full)		0.0544	0.0633		0.0703	3.34	2.52	0.519	0.048	0.0183	0.0256	< 0.0212	0.0168	0.141	0.0922	0.0205	0.0174	0.0758		
CCc1ccccc1NC(=O)/C(CC(=O)c1c(C)n([O-])c2ccccc2[n+]1=O)=N\NS(=O)(=O)c1ccc(C)cc1	52.6	> 100	55.3	42.6	> 100	47.1	40	> 100												
CSc1ccc(-c2cn3ccsc3n2)c(O)c1	> 60.9	> 62.7	> 67.3	> 100	> 87.4	> 100	> 65	> 100												
COc1cc2[nH]c(C(=O)c3cc(OC)c(OC)c(OC)c3)c(N)c2cc1C#CCO	> 100	0.842	> 100	> 100	> 100		83.6	59	0.309	0.268	0.298	0.649	0.394		1.64	0.476	2.22	32.6		
O=C1C2CC3C(CC2C(=O)[N]1[Sn]([c]1ccccc1)([c]1ccccc1)[c]1ccccc1)C1(Cl)C(Cl)=C(Cl)C3(Cl)C1(Cl)Cl (stereo not given)	0.371	0.33	0.183	0.546		0.226	0.53	0.212	0.0645	0.152	0.0473	0.0827		0.0924	0.106	0.0743			0.0701	0.2
C=C1C(=O)O[C@@H]2[C@H]1CC[C@H](C)[C@]1(O)CCC(=O)[C@@]21C	> 10	> 10	> 10	> 10			> 10	4.76										> 10		
C/C(=N\O)c1sc(-n2nc(-c3ccccc3)cc2-c2ccccc2)nc1C	25.6		17.1	25.5	21.6	17	23.6	15.3												
Oc1c(Br)cc(Br)cc1CN(Cc1cc(Br)cc(Br)c1O)C1CCCCC1		29.2	> 100	> 100		36.5	> 100	> 100										> 100		> 100
O=C1C(=O)c2cc([N+](=O)[O-])ccc2-c2ccccc21		3.49	2.82		3.35	2.68	4.7	2.86		1.94	1.43		1.78	1.28	2.21	1.45	1.66	3.33	1.74	3.16
COc1ccc(C(=S)c2cc(OC)c(OC)c(OC)c2)cc1OC(=O)CCl	> 100	17	> 100	> 100	12.9		25.2	> 95.7	< 0.0167	1.3	< 0.0174	< 0.0186	0.0301		< 0.0196	0.144	< 0.0127	> 100	0.0311	> 100
Cc1cc(N(CCC#N)CCC#N)ccc1/C=C1/CN(N2C(=O)/C(=C/c3ccc(N(CCC#N)CCC#N)cc3C)N=C2c2ccccc2)C(c2ccccc2)=N1	> 100	> 100	> 100	> 100	> 100	> 100		> 100												

Compound	TGI [1] [µM]	TGI [2] [µM]	TGI [3] [µM]	TGI [4] [µM]	TGI [5] [µM]	TGI [6] [µM]	TGI [7] [µM]	TGI [8] [µM]	GI50 [1] [µM]	GI50 [2] [µM]	GI50 [3] [µM]	GI50 [4] [µM]	GI50 [5] [µM]	GI50 [6] [µM]	GI50 [7] [µM]	GI50 [8] [µM]	GI50 [9] [µM]	TGI [9] [µM]	GI50 [10] [µM]	TGI [10] [µM]
Cc1cc(C)c(C(=O)O)c(N)c1O	> 100	> 100	> 100	> 100		> 100	> 100	> 100												
O=C1c2ccccc2C(=O)N1/N=C\c1ccc(Br)cc1	> 100	> 100	> 100	> 100	> 10	> 100	> 10	> 100	> 100		> 100	> 100				> 100				
CSc1nc(NC2OCC(OC(C)=O)C(OC(C)=O)C2OC(C)=O)c(N=CC=Nc2c(NC3OCC(OC(C)=O)C(OC(C)=O)C3OC(C)=O)nc(SC)n(C)c2=O)c(=O)n1C (stereo not given)		> 100	> 100		> 100	> 100	> 100	> 100												
COc1cccc(/C=C(/C(=O)O)c2cc(OC)c(OC)c(OC)c2)c1	> 100	> 100	> 100	> 100	> 100	> 100	> 100	> 100												
C[C@H](c1ccc(Cl)cc1N)N1C(=O)c2cc(I)ccc2N(CCCN2CCN(C)CC2)C(=O)[C@@H]1c1ccc(Cl)cc1	3.47		2.63	3.59	2.71		3.69	1.9	1.63		1.3	1.75	1.32		1.7	0.359	1.7	3.6	1.79	3.31
C[C@]12CCC[C@H](OC=O)C1(O)C[C@H](C(=O)O)CC2 (stereo not given in full)	> 100	> 100	> 100	> 100	> 100	> 100	> 100	> 100												
CCOC(=O)C12CCCC1(O)N(NC(=O)c1cccc(Cl)c1)C(C)=C2C(=O)OC (stereo not given)			> 100	> 100	> 100	> 100	> 100	> 100												
N=c1nc(N)c2cc3c(N)nc(=N)c3cc12	26.8	> 100	34.4	> 61	> 100	46.4	23.9	34.5												> 100
Cc1nc(NC(=S)NC(=O)c2ccc(Cl)c(Cl)c2)sc1C(=O)/C=C/c1ccccc1[N+](=O)[O-]	73.9	34.9	47.9	52.6	> 100	33.7	> 100	45.6												
CCCCCCCC[N+](C)(C)Cc1ccc(C[N+](C)(C)CCCCCCCC)cc1	> 100	3.48	> 100	> 100	> 100	> 100	> 100	> 100												
COc1ccc2cc(C(=O)c3ccccc3C(=O)O)ccc2c1	> 100	> 100	> 100	> 100	> 100	> 100		> 100												
CC1(C)SC2C(C(=O)O)N=C(Cc3ccccc3)N2C1C(=O)O (stereo not given)		> 100	> 100	> 100	> 100	> 100	> 100	39.5										> 100		> 100
CCN1C(=O)N(CC)C2C1NN=c1s/c(=C3\C(=O)N(CCC(C)C)c4ccccc43)c(=O)n12 (stereo not given)	> 100		2.49	> 100		4.18	5.77		2.66		1.06	2.86		1.01	1.68				2.91	9.33
CC1(C)CC23C(=O)N(c4ccccc4)C(=Nc4ccccc4)NC2=CC(C#N)=C(C#N)C3O1 (stereo not given)	> 100	> 100	> 100	> 100	> 100	> 100	> 100	> 100												
Nn1c(CCCl)nc2c(Br)cc(Br)cc2c1=O	20.3	54.1	53	61.3	65.1	38.5	58.5	> 75.6												
O=C1C=C(Nc2ccccc2)c2ncccc2C1=O		3.92	0.883	3.78	1.11	2.44	1.3	1.32		1.95	0.291	1.02	0.35	0.704	0.305	0.333	0.33	1.88	0.341	1.12
C/C(CC(=O)CCCC(=O)Nc1ccc(Cl)cc1Cl)=N/NC(=O)CC#N	> 100	> 100	> 100	> 100	> 100		> 100	> 100												
CCOC(=O)/C(=C/c1ccc(OC)c(OC)c1)C(=O)c1ccccc1	55.1	31.1		48.9	> 100	29.1	39.1	27.5												
c1cncc(C2c3[nH]c4ccccc4c3CCN2CCCN2CCCCC2)c1 (stereo not given)		> 100	> 100	> 100	> 100	> 100	> 100	> 100												
C=C(C)C1CC=C(C(=O)O)CC1 (stereo not given)	2770	1620	1500	> 5000	3950	1830		4030												
COc1cc(C(=O)C/C(CCC(=O)Nc2ccccc2[N+](=O)[O-])=N\NC(=O)C(N)=O)ccc1O	> 100	> 100	> 100	> 100	> 100			> 100												
